Patent US20240252488A1 (KOREA RESEARCH INSTITUTE OF CHEMICAL TECHNOLOGY, priority 2020, published 2024)

Columns and labels:
MLKL [1] = target: T1, MLKL (Homo sapiens, UniProt Q8NB16); experiment: Measurement of binding affinity with MLKL receptor (competitive binding assay, Kd); design: made in house; host or cells: HEK 293 cell line (T7 phage in E. coli BL21-derived host is also described)
T1 sequence (Q8NB16 1-471): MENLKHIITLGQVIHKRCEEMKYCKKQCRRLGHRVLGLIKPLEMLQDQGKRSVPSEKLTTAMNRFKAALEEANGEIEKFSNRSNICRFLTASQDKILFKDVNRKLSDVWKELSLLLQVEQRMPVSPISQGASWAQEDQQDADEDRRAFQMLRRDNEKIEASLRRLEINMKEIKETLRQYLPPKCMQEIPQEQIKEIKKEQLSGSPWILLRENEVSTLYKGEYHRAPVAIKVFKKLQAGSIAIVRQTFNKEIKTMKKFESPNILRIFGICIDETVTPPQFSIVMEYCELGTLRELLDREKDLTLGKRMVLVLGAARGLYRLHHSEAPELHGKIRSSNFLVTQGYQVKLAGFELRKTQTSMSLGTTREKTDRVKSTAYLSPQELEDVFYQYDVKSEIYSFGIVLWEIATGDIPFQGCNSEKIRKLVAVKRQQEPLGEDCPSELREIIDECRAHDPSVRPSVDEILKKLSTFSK
How it was run: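 Kd from an immobilized-ligand competition format: the DNA-tagged kinase from HEK 293 expression is eluted and quantified by qPCR. Compounds added from 111× DMSO stocks, final DMSO 0.9%.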

MLKL [2] = target: T1, MLKL; experiment: MLKL degradation assay in HepG2 cell line (western blot); format: cell-based; design: endogenous in cells; host or cells: HepG2 or HaCaT; conditions: cell line not given; for Degradation assay (Degradation %) 1 μM: compound 1 μM; for Degradation assay (Degradation %) 10 μM: compound 10 μM
How it was run: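 Degradation is judged from MLKL band intensity on immunoblots of HepG2 lysates taken after 20-24 hours of compound at final 1 or 10 μM.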

FADD−/− Jurkat cells = experiment: Necroptosis inhibition assay, TNF-α-induced necroptosis (CellTiter-Glo 2.0); format: cell-based, human; conditions: TNF-α 15 ng/mL; for Necroptosis inhibition assay (Rescue %) 1 μM: compound 1 μM; for Necroptosis inhibition assay (Rescue %) 10 μM: compound 10 μM
How it was run: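 Tested at three fixed concentrations (0.1, 1, 10 μM final) with a 30-minute room-temperature preincubation ahead of 15 ng/mL TNF-α challenge lasting 20 to 24 hours. Inhibition rate and cytotoxicity derive from ATP luminescence.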

SMILES | Kd (MLKL [1]) | Degradation assay (Degradation %) 1 μM (MLKL [2]) | Degradation assay (Degradation %) 10 μM (MLKL [2]) | Necroptosis inhibition assay (Rescue %) 1 μM (FADD−/− Jurkat cells) | Necroptosis inhibition assay (Rescue %) 10 μM (FADD−/− Jurkat cells) | Necroptosis inhibition assay (Rescue %) 1 μM (FADD−/− Jurkat cells; FADD−/− Jurkat cells) | Necroptosis inhibition assay (Rescue %) 10 μM (FADD−/− Jurkat cells; FADD−/− Jurkat cells)
Nc1ncc(-c2cnn(C3CCN(CCC4CCN(C(=O)CCc5cccc6c5CN(C5CCC(=O)NC5=O)C6=O)CC4)CC3)c2)nc1C(=O)O[C@@H](C(=O)Nc1ccc(F)cc1)c1ccccc1 (stereo partly drawn) [TDH-385, (R)-2-((4-fluorophenyl)amino)-2-oxo-1-phenylethyl 3-amino-6-(1-(1-(2-(1-(3-(2-(2,6-dioxopiperidin-3-yl)-1-oxoisoindolin-4-yl)propanoyl)piperidin-4-yl)ethyl)piperidin-4-yl)-1H-pyrazol-4-yl)pyrazine-2-carboxylate] | 0.76 nM | 94.85% | 85.11% | 53.62% | 14.09% |  | 
Nc1ncc(-c2cnn(C3CCN(CCOC4CCN(C(=O)C5CN(C6=CC(=O)N(C7CCC(=O)NC7=O)C6=O)C5)CC4)CC3)c2)nc1C(=O)O[C@@H](C(=O)Nc1ccc(F)cc1)c1ccccc1 (stereo partly drawn) [TDH-541, (R)-2-((4-fluorophenyl)amino)-2-oxo-1-phenylethyl 3-amino-6-(1-(1-(2-((1-(1-(1-(2,6-dioxopiperidin-3-yl)-2,5-dioxo-2,5-dihydro-1H-pyrrol-3-yl)azetidine-3-carbonyl)piperidin-4-yl)oxy)ethyl)piperidin-4-yl)-1H-pyrazol-4-yl)pyrazine-2-carboxylate] | 0.34 nM | 78.24% | 69.17% |  |  | 24.95% | 24.58%
Nc1ncc(-c2cnn(C3CCN(C(=O)c4cn(C5CCN(C(=O)COc6cccc7c6C(=O)N(C6CCC(=O)NC6=O)C7=O)CC5)cn4)CC3)c2)nc1C(=O)O[C@@H](C(=O)Nc1ccc(F)cc1)c1ccccc1 (stereo partly drawn) [TDH-354, (R)-2-((4-fluorophenyl)amino)-2-oxo-1-phenylethyl 3-amino-6-(1-(1-(1-(1-(2-((2-(2,6-dioxopiperidin-3-yl)-1,3-dioxoisoindolin-4-yl)oxy)acetyl)piperidin-4-yl)-1H-imidazole-4-carbonyl)piperidin-4-yl)-1H-pyrazol-4-yl)pyrazine-2-carboxylate] | 1.4 nM | 68.16% | 66.72% | 31.96% | 35.2% |  | 
Nc1ncc(-c2cnn(C3CCN(CCC4CCN(C5CC6(CCN(C(=O)Cc7cccc(NC8=CC(=O)N(C9CCC(=O)NC9=O)C8=O)c7)CC6)C5)CC4)CC3)c2)nc1C(=O)O[C@@H](C(=O)Nc1ccc(F)cc1)c1ccccc1 (stereo partly drawn) [TDH-509, (R)-2-((4-fluorophenyl)amino)-2-oxo-1-phenylethyl 3-amino-6-(1-(1-(2-(1-(7-(2-(3-((1-(2,6-dioxopiperidin-3-yl)-2,5-dioxo-2,5-dihydro-1H-pyrrol-3-yl)amino)phenyl)acetyl)-7-azaspiro[3.5]nonan-2-yl)piperidin-4-yl)ethyl)piperidin-4-yl)-1H-pyrazol-4-yl)pyrazine-2-carboxylate] | 0.78 nM | 76.18% | 73.70% |  |  | 19.06% | 5.55%
Nc1ncc(-c2cnn(C3CCN(C(=O)COCCOCCNC(=O)C4CN(c5ccc6c(c5)C(=O)N(C5CCC(=O)NC5=O)C6=O)C4)CC3)c2)nc1C(=O)O[C@@H](C(=O)Nc1ccc(F)cc1)c1ccccc1 (stereo partly drawn) [TDH-193, (R)-2-((4-fluorophenyl)amino)-2-oxo-1-phenylethyl 3-amino-6-(1-(1-(2-(2-(2-(1-(2-(2,6-dioxopiperidin-3-yl)-1,3-dioxoisoindolin-5-yl)azetidine-3-carboxamido)ethoxy)ethoxy)acetyl)piperidin-4-yl)-1H-pyrazol-4-yl)pyrazine-2-carboxylate] | 6.1 nM |  | 11.22% | 43.97% | 40.55% |  | 
Nc1ncc(-c2cnn(C3CCN(CCCN4CCN(C(=O)COc5ccc6c(c5)C(=O)N(C5CCC(=O)NC5=O)C6=O)CC4)CC3)c2)nc1C(=O)O[C@@H](C(=O)Nc1cccc(Cl)c1)c1ccccc1 (stereo partly drawn) [TDH-485, (R)-2-((3-chlorophenyl)amino)-2-oxo-1-phenylethyl 3-amino-6-(1-(1-(3-(4-(2-((2-(2,6-dioxopiperidin-3-yl)-1,3-dioxoisoindolin-5-yl)oxy)acetyl)piperazin-1-yl)propyl)piperidin-4-yl)-1H-pyrazol-4-yl)pyrazine-2-carboxylate] | 10 nM | 87.46% | 93.6% |  |  | 61.51% | 50.03%
Nc1ncc(-c2cnn(C3CCN(CC4CCN(C(=O)C5CCN(C6=CC(=O)N(C7CCC(=O)NC7=O)C6=O)CC5)CC4)CC3)c2)nc1C(=O)O[C@@H](C(=O)Nc1ccc(F)cc1)c1ccccc1 (stereo partly drawn) [TDH-523, (R)-2-((4-fluorophenyl)amino)-2-oxo-1-phenylethyl 3-amino-6-(1-(1-((1-(1-(1-(2,6-dioxopiperidin-3-yl)-2,5-dioxo-2,5-dihydro-1H-pyrrol-3-yl)piperidine-4-carbonyl)piperidin-4-yl)methyl)piperidin-4-yl)-1H-pyrazol-4-yl)pyrazine-2-carboxylate] | 1 nM | 89.24% | 77.14% |  |  | 35.34% | 16.27%
Nc1ncc(-c2cnn(C3CCN(C4CC5(CCN(CC6CCN(C(=O)c7ccc(C(=O)NC8CCC(=O)NC8=O)cc7)CC6)CC5)C4)CC3)c2)nc1C(=O)O[C@@H](C(=O)Nc1ccc(F)cc1)c1ccccc1 (stereo partly drawn) [TDH-537, (R)-2-((4-fluorophenyl)amino)-2-oxo-1-phenylethyl 3-amino-6-(1-(1-(7-((1-(4-((2,6-dioxopiperidin-3-yl)carbamoyl)benzoyl)piperidin-4-yl)methyl)-7-azaspiro[3.5]nonan-2-yl)piperidin-4-yl)-1H-pyrazol-4-yl)pyrazine-2-carboxylate] | 0.61 nM | 64.82% | 86.14% |  |  | 32.07% | 30.76%
Nc1ncc(-c2cnn(C3CCN(CCOCCOCCOCCNC(=O)CNc4ccc5c(c4)C(=O)N(C4CCC(=O)NC4=O)C5=O)CC3)c2)nc1C(=O)O[C@@H](C(=O)Nc1ccc(F)cc1)c1ccccc1 (stereo partly drawn) [TDH-144, (R)-2-((4-fluorophenyl)amino)-2-oxo-1-phenylethyl 3-amino-6-(1-(1-(1-((2-(2,6-dioxopiperidin-3-yl)-1,3-dioxoisoindolin-5-yl)amino)-2-oxo-6,9,12-trioxa-3-azatetradecan-14-yl)piperidin-4-yl)-1H-pyrazol-4-yl)pyrazine-2-carboxylate] | 2.5 nM | 58.79% | 86.28% | 15.23% | 68.71% |  | 
Nc1ncc(-c2cnn(C3CCN(CC4CCN(c5ccc6c(c5)C(=O)N(C5CCC(=O)NC5=O)C6=O)CC4)CC3)c2)nc1C(=O)O[C@@H](C(=O)Nc1ccc(F)cc1)c1ccccc1 (stereo partly drawn) [TDH-150, (R)-2-((4-fluorophenyl)amino)-2-oxo-1-phenylethyl 3-amino-6-(1-(1-((1-(2-(2,6-dioxopiperidin-3-yl)-1,3-dioxoisoindolin-5-yl)piperidin-4-yl)methyl)piperidin-4-yl)-1H-pyrazol-4-yl)pyrazine-2-carboxylate] | 43 nM | 66.97% | 53.7% | 53.91% | 39.57% |  | 
